Data as given in patent publication US9988373B2, “Nitrogen-containing six-membered cyclic derivatives and pharmaceutical composition comprising the same” (SHIONOGI & CO., LTD., priority 2013, dated 2018).

molecular target: T1, human P2X7 receptor (Homo sapiens, UniProt Q99572, R270H); assay: Evaluation of a human P2X7 receptor inhibitory activity (Yo-Pro uptake, BzATP stimulation, FLIPR TETRA); type: cell-based; conditions: antagonistic activity for the human P2X7 receptor, 1321N1 cell transfected with the human P2X7 receptor gene, Yo-Pro fluorescence
T1 construct: expressed in transfected cells
T1 sequence (Q99572 1-595 R270H): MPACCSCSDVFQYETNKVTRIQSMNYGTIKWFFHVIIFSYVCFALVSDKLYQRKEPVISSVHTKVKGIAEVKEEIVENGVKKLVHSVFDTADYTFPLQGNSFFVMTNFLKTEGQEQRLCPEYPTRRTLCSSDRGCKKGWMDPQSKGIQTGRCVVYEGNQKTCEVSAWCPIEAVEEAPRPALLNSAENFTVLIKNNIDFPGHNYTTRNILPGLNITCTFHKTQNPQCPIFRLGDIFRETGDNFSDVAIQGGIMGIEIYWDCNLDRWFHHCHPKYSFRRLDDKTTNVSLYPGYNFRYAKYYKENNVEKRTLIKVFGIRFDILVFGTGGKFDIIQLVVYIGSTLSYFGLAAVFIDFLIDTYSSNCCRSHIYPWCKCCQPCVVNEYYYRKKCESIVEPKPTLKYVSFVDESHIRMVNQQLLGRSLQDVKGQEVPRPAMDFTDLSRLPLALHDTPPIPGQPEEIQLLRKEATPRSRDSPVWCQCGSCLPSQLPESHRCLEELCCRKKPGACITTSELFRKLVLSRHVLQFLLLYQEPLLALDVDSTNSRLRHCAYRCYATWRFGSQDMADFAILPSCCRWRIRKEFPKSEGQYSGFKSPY
Description: Test Example 1 Evaluation of a Human P2X7 Receptor Inhibitory Activity
Stably expressing cell line (1321N1 cell transfected with the human P2X7 receptor gene (GenBank accession number NM_002562.5 including T606C and G952A SNP)) was used. The cells were seeded in a 384-well microtiter plate at a concentration of 8000 cells/well and cultured in the medium (10% fetal bovine serum, 25 mM HEPES, 1% penicillin and streptomycin in DMEM) for one day at 37° C. under 5% carbon dioxide atmosphere. After replacing with 20 μL of the HBSS buffer (20 mM HEPES. 55.6 mM D-glucose, 1×HBSS(−), pH 7.4-7.5), 15 μL of 17.3 μM Yo-Pro solution in the HBSS buffer was added. The plate was placed in high-throughput cellular screening system FLIPR TETRA (Molecullar Devices, LLC.) and 15 μL of 130 μM BzATP solution in the HBSS buffer was added. Measurement of fluorescence intensity by FLIPR TETRA was started. After eight minutes, 15 μL of DMSO solutions containing different concentrations of the compound of the present invention as prepared by dilution with the HBSS buffer were dispensed to each well through the built-in automatic dispenser, and the measurement of fluorescence intensity was continued for 20 minutes. The maximum fluorescence intensity without the compound of the present invention is calculated as 0% inhibition and the maximum fluorescence intensity when the reference compound was added is calculated as 100% inhibition. Changing values of fluorescence intensity by the compound of the present invention were calculated by difference between maximum and minimum fluorescence intensity for 20 minutes. Inhibition ratios (%) were calculated from the following equation:
[formula] IC50 was calculated using logistic approximation.

SMILES | IC50 [nM]
COc1cn(Cc2ccccc2)c(-c2cccc(Cl)c2Cl)nc1=O [II-056] | 130
O=c1ccn(Cc2ccc(F)cc2)c(-c2cccc(Cl)c2Cl)c1 [Compound I-020] | 810
COc1cn(Cc2ccccc2)c(C2=CCC3(CC2)CC3)nc1=O [II-073] | 630
O=c1cnn(Cc2ccccc2)c(-c2cccc(C(F)(F)F)c2Cl)c1 [III-002] | 110
O=c1nc(-c2cccc(C(F)(F)F)c2Cl)n(Cc2ccccc2)cc1F [II-031] | 58
Nc1cn(Cc2ccccc2)c(-c2cccc(C(F)(F)F)c2Cl)nc1=O [II-045] | 270
Cc1cn(Cc2ccccc2)c(-c2cccc(C(F)(F)F)c2Cl)nc1=O [II-030] | 210
COc1cn(Cc2cccc3ccccc23)c(-c2cccc(C(F)(F)F)c2Cl)nc1=O [II-055] | 20
O=c1cc(-c2cccc(C(F)(F)F)c2Cl)n(Cc2ccccc2)cn1 [III-001] | 110

same assay, conditions: antagonistic activity for the human P2X7 receptor, 1321N1 cell transfected with the human P2X7 receptor gene, Yo-Pro fluorescence, class symbols

SMILES | IC50 [nM]
N#Cc1cccc(Cn2cc(Br)c(=O)cc2-c2cccc(C(F)(F)F)c2Cl)c1 [Compound I-003] | 100 to 500
O=c1ccn(Cc2cccnc2)c(-c2cccc(C(F)(F)F)c2Cl)c1 [Compound I-053] | 500 to 1000
CC(C)NC(=O)Nc1cccc(Cn2ccc(=O)cc2-c2cccc(C(F)(F)F)c2Cl)c1 [Compound I-037] | 100 to 500
N#Cc1cccc(Cn2cc(N3CCCC3)c(=O)cc2-c2cccc(C(F)(F)F)c2Cl)c1 [Compound I-004] | 500 to 1000
O=c1nc(-c2cccc(C(F)(F)F)c2Cl)n(Cc2ccccc2)cc1OCCO [II-025] | 50 to 100
COc1cn(Cc2ccccc2)c(-c2cc(Cl)ccc2Cl)nc1=O [II-101] | 1000 to 10000
O=c1ccn(Cc2cccc(C(F)(F)F)c2)c(-c2cccc(C(F)(F)F)c2Cl)c1 [Compound I-050] | 1000 to 10000
O=c1ccn(Cc2ccccc2Cl)c(-c2cccc(C(F)(F)F)c2Cl)c1 [Compound I-059] | 100 to 500
COc1cn(Cc2ccccc2C)c(-c2ccccc2)nc1=O [II-058] | 1000 to 10000
COc1cn(Cc2cccc(F)c2)c(-c2cccc(C(F)(F)F)c2Cl)nc1=O [II-006] | 50 to 100
COc1cn(Cc2ccccc2CO)c(-c2cccc(C(F)(F)F)c2Cl)nc1=O [II-015] | < 50
COc1cn(Cc2ccccc2)c(-c2ccc(C(F)(F)F)cc2Cl)nc1=O [II-088] | 500 to 1000
COc1cn(Cc2ccccc2C)c(-c2cccc(F)c2)nc1=O [II-062] | 1000 to 10000
COc1cccc(Cn2cc(Br)c(=O)cc2-c2cccc(C(F)(F)F)c2Cl)c1 [Compound I-009] | 100 to 500
O=c1nc(-c2cccc(C(F)(F)F)c2Cl)n(Cc2ccccc2)cc1Oc1ccccc1 [II-080] | 50 to 100
COc1cn(Cc2cccc(Cl)c2)c(-c2cccc(C(F)(F)F)c2Cl)nc1=O [II-100] | 50 to 100
N#Cc1cn(Cc2ccc(F)cc2)c(-c2cccc(C(F)(F)F)c2Cl)nc1=O [II-049] | 50 to 100
O=c1ccn(Cc2ccccc2CS(=O)(=O)c2ccccc2)c(-c2cccc(C(F)(F)F)c2Cl)c1 [Compound I-056] | 1000 to 10000
CC(C#N)Oc1cn(Cc2ccccc2)c(-c2cccc(C(F)(F)F)c2Cl)nc1=O (centres unmarked) [II-041] | < 50
COc1cn(Cc2ccccc2C)c(-c2ccccc2Cl)nc1=O [II-074] | 500 to 1000
COc1cn(Cc2ccccc2SC(F)(F)F)c(-c2cccc(C(F)(F)F)c2Cl)nc1=O [II-098] | 100 to 500

SMILES | IC50 [nM]
COc1cn(Cc2ccccc2C)c(-c2cccc(Cl)c2)nc1=O [II-059] | 1000 to 10000
CS(=O)(=O)c1ccc(Cn2ccc(=O)cc2-c2cccc(C(F)(F)F)c2Cl)cc1 [Compound I-060] | 1000 to 10000
NC(=O)c1ccc(Cn2ccc(=O)cc2-c2cccc(C(F)(F)F)c2Cl)cc1 [Compound I-063] | 1000 to 10000
O=c1cc(-c2cccc(C(F)(F)F)c2Cl)n(Cc2cccc(Cl)c2)cc1Br [Compound I-011] | 100 to 500
O=c1ccn(Cc2cccc(F)c2F)c(-c2cccc(C(F)(F)F)c2Cl)c1 [Compound I-062] | 500 to 1000
COc1cn(Cc2cccc(C#N)c2)c(-c2cccc(C(F)(F)F)c2Cl)nc1=O [II-013] | 100 to 500
Cc1ccccc1Cn1cc(Br)c(=O)nc1-c1cccc(C(F)(F)F)c1Cl [II-003] | < 50
N#CCn1cc(-c2ccccc2)c(=O)nc1-c1cccc(C(F)(F)F)c1Cl [II-050] | 100 to 500
O=c1ccn(Cc2ccc3ccccc3c2)c(-c2cccc(C(F)(F)F)c2Cl)c1 [Compound I-051] | 500 to 1000
CC(C)(C)OC(=O)Nc1cn(Cc2ccccc2)c(-c2cccc(C(F)(F)F)c2Cl)nc1=O [II-042] | 50 to 100
O=c1nc(-c2cccc(C(F)(F)F)c2Cl)n(Cc2ccccc2)cc1OCc1ccccc1 [II-023] | < 50
O=c1ccn(Cc2cccc(Cl)c2)c(-c2cccc(C(F)(F)F)c2Cl)c1 [Compound I-055] | 100 to 500
COc1cn(Cc2cccnc2C)c(-c2cccc(C(F)(F)F)c2Cl)nc1=O [II-026] | 50 to 100
N#CCOc1cn(Cc2ccccc2)c(-c2cccc(C(F)(F)F)c2Cl)nc1=O [II-022] | < 50
N#CCn1cc(OCc2ccccc2)c(=O)nc1-c1cccc(C(F)(F)F)c1Cl [II-085] | < 50
COc1cn(Cc2ccccc2C)c(-c2cccc(C(F)(F)F)c2Cl)nc1=O [II-001] | < 50
COc1cn(Cc2ccc(F)cc2C)c(-c2cccc(C(F)(F)F)c2Cl)nc1=O [II-007] | 50 to 100
COc1ccc(-c2noc(Cn3ccc(=O)cc3-c3cccc(C(F)(F)F)c3Cl)n2)cc1 [Compound I-038] | 1000 to 10000
COc1cn(Cc2ccc(C)cc2)c(-c2cccc(C(F)(F)F)c2Cl)nc1=O [II-016] | 500 to 1000
O=c1ccn(Cc2ccc(F)cc2)c(-c2cccc(C(F)(F)F)c2Cl)c1 [Compound I-017] | 500 to 1000
Cc1ccccc1Cn1ccc(=O)cc1-c1cccc(C(F)(F)F)c1Cl [Compound I-018] | 50 to 100

SMILES | IC50 [nM]
O=c1ccn(Cc2ccccc2)c(-c2cccc(C(F)(F)F)c2Cl)n1 [II-048] | 100 to 500
CC(=O)COc1cn(Cc2ccccc2)c(-c2cccc(C(F)(F)F)c2Cl)nc1=O [II-034] | 50 to 100
COc1cn(Cc2cccc(C)c2)c(-c2cccc(C(F)(F)F)c2Cl)nc1=O [II-017] | 100 to 500
Cc1ccccc1Cn1cc(OCC(F)(F)F)c(=O)nc1-c1cccc(C(F)(F)F)c1Cl [II-089] | < 50
COc1cn(Cc2ccccc2C)c(-c2cccc(C(F)(F)F)c2)nc1=O [II-065] | 100 to 500
COc1cn(Cc2ccccc2C)c(-c2cccc(-c3ccccc3)c2)nc1=O [II-068] | 1000 to 10000
N#Cc1cn(Cc2ccccc2)c(-c2cccc(C(F)(F)F)c2Cl)nc1=O [II-037] | < 50
COc1cn(Cc2ccccc2)c(-c2cccc(F)c2F)nc1=O [II-078] | 500 to 1000
N#Cc1ccccc1Cn1ccc(=O)cc1-c1cccc(C(F)(F)F)c1Cl [Compound I-023] | 500 to 1000
CC(C)NC(=O)Nc1cccc(Cn2cc(Br)c(=O)cc2-c2cccc(C(F)(F)F)c2Cl)c1 [Compound I-012] | 500 to 1000
O=c1ccn(Cc2cccc3cccnc23)c(-c2cccc(C(F)(F)F)c2Cl)c1 [Compound I-044] | 500 to 1000
COc1cccc(Cn2cc(OC)c(=O)nc2-c2cccc(C(F)(F)F)c2Cl)c1 [II-086] | < 50
COc1cn(Cc2ccccc2C)c(-c2ccc(C(F)(F)F)cc2)nc1=O [II-066] | 1000 to 10000
COc1cn(Cc2ccncc2)c(-c2cccc(C(F)(F)F)c2Cl)nc1=O [II-020] | 1000 to 10000
COc1cn(Cc2ccccc2)c(-c2ccc(Cl)c(Cl)c2)nc1=O [II-084] | 100 to 500
COc1cn(Cc2cccc3ncccc23)c(-c2cccc(C(F)(F)F)c2Cl)nc1=O [II-052] | < 50
O=c1ccn(Cc2ccccc2-c2cccs2)c(-c2cccc(C(F)(F)F)c2Cl)c1 [Compound I-045] | 1000 to 10000
COc1cn(Cc2ccccc2)c(-c2cccc(Cl)c2C)nc1=O [II-081] | 500 to 1000
NCCOc1cn(Cc2ccccc2)c(-c2cccc(C(F)(F)F)c2Cl)nc1=O [II-027] | 500 to 1000
COc1cn(Cc2ccccc2)c(C2=CCCCCC2)nc1=O [II-069] | 1000 to 10000
